Experimental data as given in patent EP4631938A1, “NITROGEN-CONTAINING HETEROCYCLE WITH SEROTONIN RECEPTOR-BINDING ACTIVITY AND CARBOCYCLIC DERIVATIVE” (Shionogi & Co., Ltd, priority 2022, dated 2024).
Like-named read-outs stand apart in the source and are kept apart here.

Assays:
[1] = target: T1, human recombinant 5-HT2A receptor (Homo sapiens, UniProt P28223); assay: Test Example 1-2: 5-HT2A receptor binding inhibition test ([3H]-Ketanserin; non-specific ligand Ketanserin)
T1 construct: expressed in transfected cells; host or cells: Jump-In HEK cells (membrane preparation)
Summary of the method: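 Membranes expressing the receptor were incubated with [3H]-ketanserin and compound for 1.5 h at 25 °C, then filtered onto plates presoaked in 50 mmol/L Tris-HCl pH 7.4 and scintillation-counted. Non-specific binding was defined with 500 µmol/L unlabeled ketanserin. Ki was taken from dose-response curves, with Kd set for each membrane lot by Scatchard analysis.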

[2] = target: T2, human recombinant 5-HT2C receptor (Homo sapiens, UniProt P28335); assay: Test Example 2-2: 5-HT2C receptor binding inhibition test ([3H]-Mesulergine; non-specific ligand Ketanserin); details: non-specific binding with 500 µmol/L Ketanserin, 37°C, 2 hours
T2 construct: expressed in transfected cells; host or cells: Jump-In HEK cells (membrane preparation)
T2 sequence (P28335 33-458): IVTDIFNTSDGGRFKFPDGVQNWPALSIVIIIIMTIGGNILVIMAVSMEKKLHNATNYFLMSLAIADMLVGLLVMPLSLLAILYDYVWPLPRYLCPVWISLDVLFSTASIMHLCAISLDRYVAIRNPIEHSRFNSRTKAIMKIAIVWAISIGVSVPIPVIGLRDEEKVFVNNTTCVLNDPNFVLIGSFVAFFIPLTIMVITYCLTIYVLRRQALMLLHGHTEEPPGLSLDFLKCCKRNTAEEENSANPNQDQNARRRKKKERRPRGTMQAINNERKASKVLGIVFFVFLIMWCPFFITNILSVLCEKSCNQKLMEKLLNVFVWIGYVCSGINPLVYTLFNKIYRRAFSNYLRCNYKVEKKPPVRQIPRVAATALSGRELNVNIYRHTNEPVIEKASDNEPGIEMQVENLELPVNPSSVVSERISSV
Procedure: The Kd value is calculated when the lot of the cell membrane is changed. 1 mmol/L non-specific binding calculating compound dissolved in DMSO or DMSO is previously dispensed to the microplate by 0.5 µL, and the cell membrane is diluted with an Assay buffer. The radioactive ligand solution is diluted step by step, and counts are checked with a liquid scintillator. The Assay buffer containing diluted cell membranes is dispensed by 50 µL/well into the microplate. The radioactive ligand solution is then dispensed by 50 µL/well into the microplate and the plate is sealed. The microplate is allowed to stand at 37°C for 2 hours. During this time, 50 mmol/L Tris-HCl (pH 7.4) is dispensed by 50 µL/well into the UniFilter plate and allowed to stand at 4°C for 1 hour or longer. Thereafter, filtration is performed with a Cell Harvester (PerkinElmer). The radioactive ligand solution is dispensed by 10 µL/well into empty wells of the UniFilter plate. After drying the UniFilter plate at room temperature, MicroScinti20 is dispensed by 50 µL/well into the UniFilter plate, and the plate is sealed. UniFilter plate is allowed to stand at room temperature overnight. The radioactivity of [^3H]-Mesulergine bound to the 5-HT2C receptor is measured using Microbeta2 (PerkinElmer) at a measurement time of 1 min/well. The Saturation curve is drawn from the measured value, and the Kd value is calculated from the slope of the Scatchard Plot.
A compound solution dissolved in DMSO is dispensed to a microplate by 0.5 µL, and a cell membrane and a hot ligand are each diluted with an Assay buffer. The Assay buffer containing diluted cell membrane is then dispensed by 50 µL/well into the microplate. The radioactive ligand solution is then dispensed by 50 µL/well into the microplate and the plate is sealed. The microplate is then allowed to stand at 37°C for 2 hours. During this time, 50 mmol/L Tris-HCl (pH 7.4) is dispensed by 50 µL/well into the UniFilter plate and allowed to stand at 4°C for 1 hour or longer. Thereafter, filtration is performed with a Cell Harvester (PerkinElmer). After drying the UniFilter plate at room temperature, MicroScinti20 is dispensed by 50 µL/well into the UniFilter plate, and the plate is sealed. UniFilter plate is allowed to stand at room temperature overnight. The radioactivity of [^3H]-Mesulergine bound to the 5-HT2C receptor is measured using Microbeta2 (PerkinElmer) at a measurement time of 1 min/well. Non-specific binding is calculated from the radioactivity of [^3H]-Mesulergine in the presence of 500 µmol/L Ketanserin of unlabeled ligand, and total binding is calculated from the radioactivity of [^3H]-Mesulergine in the absence of the compound of the present invention (Vehicle). Finally, the Ki value is calculated from the dose-response curve.
(The binding activity of the compound according to the present invention is calculated from the following binding inhibition rate (%).) Inhibition rate (%) = [1−(c−a)/(b−a)] × 100 [formula] • a; average cpm of non-specific binding • b; average cpm of total binding • c; cpm in the presence of the test compound
The compounds of the present invention were tested essentially as described above.

[3] = [3H]-Ketanserin, non-specific binding with 500 µmol/L Ketanserin, room temperature (25°C), 1.5 hours, read-out: h 5-HT2A Ki

T1 sequence (P28223 whole entry): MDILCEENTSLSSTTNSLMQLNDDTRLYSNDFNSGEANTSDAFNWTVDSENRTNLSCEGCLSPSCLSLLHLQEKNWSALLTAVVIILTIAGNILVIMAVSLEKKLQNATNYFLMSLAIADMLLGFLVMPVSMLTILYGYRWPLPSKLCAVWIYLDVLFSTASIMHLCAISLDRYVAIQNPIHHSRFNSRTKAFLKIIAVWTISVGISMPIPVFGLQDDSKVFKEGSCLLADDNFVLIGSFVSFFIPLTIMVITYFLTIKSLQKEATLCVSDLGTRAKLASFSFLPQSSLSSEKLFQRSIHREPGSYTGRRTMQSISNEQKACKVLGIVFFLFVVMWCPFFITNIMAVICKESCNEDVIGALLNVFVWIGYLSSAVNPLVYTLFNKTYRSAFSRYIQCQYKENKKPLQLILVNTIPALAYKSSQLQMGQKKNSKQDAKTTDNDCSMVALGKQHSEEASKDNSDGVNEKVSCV

| Ki [1, 3] | Ki [2] | Structure (SMILES) | Ki [1] |
| --- | --- | --- | --- |
| 0.279 nM | 1.3 nM | Cn1ncc(C#N)c1-c1cc(Nc2ccc(OC(F)(F)F)cn2)ccc1OCCO [Compound I-121] | – |
| 0.485 nM | 1.38 nM | Cc1nc(C)c(-c2cc(Nc3ccc(C(F)(F)F)cn3)ccc2OCCO)c(C)n1 [Compound I-122] | – |
| 0.81 nM | 5.59 nM | Cc1nc(C)c(-c2cc(Nc3ccc(Cl)cn3)ccc2OCCO)c(C)n1 [Compound I-123] | – |
| 0.259 nM | 2.32 nM | Cc1ncnc(C)c1-c1cc(Nc2ccc(OC(F)(F)F)cn2)ccc1OCCO [Compound I-124] | – |
| 0.36 nM | 6.04 nM | Cn1ncc(C#N)c1-c1cc(Nc2ccc(C(F)(F)F)cn2)c(F)cc1OCCO [Compound I-125] | – |
| 0.654 nM | 4.42 nM | Cc1cnn(C)c1-c1cc(Nc2ccc(C(F)(F)F)cn2)c(Oc2ccn(C)n2)cc1OCCO [Compound I-126] | – |
| 0.258 nM | 0.452 nM | Cn1ncc(Br)c1-c1cc(Nc2ccc(C3CC3)cn2)cnc1OCCO [Compound I-128] | – |
| 0.237 nM | 0.959 nM | Cn1ncc(Br)c1-c1cc(Nc2ncc(C3CC3)s2)cnc1OCCO [Compound I-129] | – |
| 0.256 nM | 3.26 nM | Cn1ncc(Br)c1-c1cc(Nc2ncc(Cl)s2)cnc1OCCO [Compound I-130] | – |
| 0.163 nM | 1.25 nM | Cn1ncc(Br)c1-c1cc(Nc2ncc(C(F)(F)F)cn2)cnc1OCCO [Compound I-131] | – |
| 0.236 nM | 5 nM | Cn1ncc(Br)c1-c1cc(Nc2ncc(Cl)cn2)cnc1OCCO [Compound I-132] | – |
| 0.322 nM | 2.53 nM | Cn1ncc(Br)c1-c1cc(Nc2ncc(C3CC3)cn2)cnc1OCCO [Compound I-133] | – |
| 0.621 nM | 13.2 nM | Cc1ncnc(C)c1-c1cc(Nc2ncc(C(F)(F)F)cc2F)cnc1OCCO [Compound I-134] | – |
| 1.24 nM | 7.13 nM | Cc1nc(C)c(-c2cc(Nc3ncc(C(F)(F)F)cc3F)cnc2OCCO)c(C)n1 [Compound I-135] | – |
| 0.167 nM | 0.277 nM | Cn1ncc(Cl)c1-c1cc(Nc2ncc(Cl)cc2F)ccc1OCCO [Compound I-136] | – |
| 0.205 nM | 0.772 nM | Cn1ncc(Cl)c1-c1cc(Nc2ncc(F)cc2F)ccc1OCCO [Compound I-137] | – |
| 0.264 nM | 4.76 nM | Cn1ncc(Cl)c1-c1cc(Nc2ncc(Cl)cn2)ccc1OCCO [Compound I-138] | – |
| 0.431 nM | 7.73 nM | Cn1ncc(F)c1-c1cc(Nc2ncc(Cl)cc2F)cnc1OCCO [Compound I-139] | – |
| 0.148 nM | 1.06 nM | Cc1cnn(C)c1-c1cc(Nc2ncc(Cl)cc2F)ccc1OCCO [Compound I-140] | – |

| Ki [1, 3] | Ki [2] | Structure (SMILES) | Ki [1] |
| --- | --- | --- | --- |
| 0.296 nM | 4.07 nM | Cc1cnn(C)c1-c1cc(Nc2ncc(Cl)cc2F)cnc1OCCO [Compound I-141] | – |
| 0.269 nM | 0.195 nM | Cn1ncc(Cl)c1-c1cc(Nc2ncc(C(F)(F)F)cc2F)cnc1OCCO [Compound I-142] | – |
| 0.259 nM | 0.274 nM | Cn1ncc(Cl)c1-c1cc(Nc2ncc(Cl)cc2F)cnc1OCCO [Compound I-143] | – |
| 0.341 nM | 2.49 nM | Cc1cnn(C)c1-c1cc(Nc2ncc(C(F)(F)F)cc2F)c(F)cc1OCCO [Compound I-144] | – |
| 0.202 nM | 4.76 nM | Cn1ncc(F)c1-c1cc(Nc2ncc(C(F)(F)F)cc2F)c(F)cc1OCCO [Compound I-145] | – |
| 0.259 nM | 4.75 nM | Cc1noc(C)c1-c1cc(Nc2ncc(C(F)(F)F)cc2F)c(F)cc1OCCO [Compound I-147] | – |
| 0.506 nM | 0.906 nM | Cn1ncc(Br)c1-c1cc(Nc2ncc(C(F)(F)F)cn2)c(F)cc1OCCO [Compound I-148] | – |
| 0.365 nM | 1.35 nM | Cn1ncc(Br)c1-c1cc(Nc2ncc(Cl)cn2)c(F)cc1OCCO [Compound I-149] | – |
| 0.279 nM | 0.239 nM | Cn1ncc(Br)c1-c1cc(Nc2ncc(C(F)(F)F)cc2F)c(F)cc1OCCO [Compound I-150] | – |
| 0.292 nM | 0.206 nM | Cn1ncc(Br)c1-c1cc(Nc2ccc(C(F)(F)F)cn2)c(F)cc1OCCO [Compound I-151] | – |
| 0.354 nM | 0.52 nM | Cn1ncc(Br)c1-c1cc(Nc2ncc(Cl)cc2F)c(F)cc1OCCO [Compound I-152] | – |
| 0.286 nM | 0.351 nM | Cn1ncc(Br)c1-c1cc(Nc2ccc(Cl)cn2)c(F)cc1OCCO [Compound I-153] | – |
| 0.332 nM | 1.1 nM | Cn1ncc(Br)c1-c1cc(Nc2ncc(F)cc2F)c(F)cc1OCCO [Compound I-154] | – |
| 0.318 nM | 1.04 nM | Cn1ncc(Br)c1-c1cc(Nc2ncc(Cl)cc2F)ncc1OCCO [Compound I-155] | – |
| 0.315 nM | 1.78 nM | Cn1ncc(Cl)c1-c1cc(Nc2ncc(Cl)cc2F)ncc1OCCO [Compound I-156] | – |
| 0.238 nM | 2.33 nM | Cc1cnn(C)c1-c1cc(Nc2ccc(C(F)(F)F)cn2)c(F)cc1OCCO [Compound I-157] | – |
| 0.907 nM | 3.5 nM | Cc1nc(C)c(-c2cc(Nc3ccc(C(F)(F)F)cn3)c(F)cc2OCCO)c(C)n1 [Compound I-158] | – |
| 0.295 nM | 1.88 nM | Cn1ncc(Br)c1-c1cc(Nc2ncc(C(F)(F)F)cn2)ncc1OCCO [Compound I-159] | – |

| Structure (SMILES) | Ki [1, 3] | Ki [2] | Ki [1] |
| --- | --- | --- | --- |
| Cn1ncc(C#N)c1-c1cc(Nc2ncc(C(F)(F)F)cc2F)ccc1OCCO [I-031] | – | 1.6 nM | 0.239 nM |
| C=C(C)c1cnn(C)c1-c1cc(Nc2ncc(C(F)(F)F)cc2F)ccc1OCCO [I-054] | – | 1.03 nM | 0.632 nM |
| CC(C)c1cnn(C)c1-c1cc(Nc2ncc(C(F)(F)F)cc2F)ccc1OCCO [I-056] | – | 1.04 nM | 1.3 nM |
| C#Cc1cnn(C)c1-c1cc(Nc2ncc(C(F)(F)F)cc2F)ccc1OCCO [I-058] | – | 0.456 nM | 0.418 nM |
| Cn1ncc(Br)c1-c1cc(Nc2nc3ccc(Cl)cc3s2)ccc1OCCO [I-064] | – | 0.18 nM | 0.327 nM |
| Cn1cnc(C#N)c1-c1cc(Nc2ncc(C(F)(F)F)cc2F)ccc1OCCO [I-065] | – | 5.02 nM | 0.15 nM |
| Cn1ncc(Br)c1-c1cc(Nc2ncc(C(F)(F)F)cc2F)cnc1OCCO [I-082] | – | 0.358 nM | 0.184 nM |
| Cn1ncc(C#N)c1-c1cc(Nc2ncc(C(F)(F)F)cc2F)c(F)cc1OCCO [I-108] | – | 6.23 nM | 0.478 nM |
